Data taken from PubChem BioAssay AID248 (DTP/NCI, 2004).
Where “and” joins values, the source holds several entries; their conditions need not be identical. Identical values can stand only once. Inconclusive results and toxic doses are left out. No stated cut-off is given here; in the data, active means T/C of 150% or more; inactive means T/C below 125%.

Tested on: L1210 leukemia ip in BDF1 mice, survival T/C
Assay: NCI In Vivo Anticancer Drug Screen. Data for tumor model L1210 Leukemia (intraperitoneal) in B6D2F1 (BDF1) mice
Settings: endpoint: mean survival time, higher = longer survival
Summary of the method: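 Tumor cells were implanted, animals were treated, and survival was followed. The result divides the treated measurement by the vehicle-control measurement.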

[1] = dose: 100.0 mg/kg/injection, schedule: Q01DX001 (ip), vehicle: Klucel (hydroxypropylcellulose) (HPC)
[2] = dose: 100.0 mg/kg/injection, schedule: Q04DX003 (ip), vehicle: Klucel (hydroxypropylcellulose) (HPC)
[3] = dose: 50.0 mg/kg/injection, schedule: Q01DX009 (ip), vehicle: saline
[4] = dose: 100.0 mg/kg/injection, schedule: Q01DX009 (ip), vehicle: saline
[5] = dose: 100.0 mg/kg/injection, schedule: Q04DX003 (ip), vehicle: saline
[6] = dose: 200.0 mg/kg/injection, schedule: Q01DX009 (ip), vehicle: saline
[7] = dose: 200.0 mg/kg/injection, schedule: Q04DX003 (ip), vehicle: saline
[8] = dose: 100.0 mg/kg/injection, schedule: Q04DX002 (ip), vehicle: saline with Tween-80
[9] = dose: 200.0 mg/kg/injection, schedule: Q04DX002 (ip), vehicle: saline with Tween-80
[10] = dose: 400.0 mg/kg/injection, schedule: Q04DX002 (ip), vehicle: saline with Tween-80
[11] = dose: 100.0 mg/kg/injection, schedule: Q01DX009 (ip), vehicle: Klucel (hydroxypropylcellulose) (HPC)
[12] = dose: 200.0 mg/kg/injection, schedule: Q01DX009 (ip), vehicle: Klucel (hydroxypropylcellulose) (HPC)
[13] = dose: 200.0 mg/kg/injection, schedule: Q04DX003 (ip), vehicle: Klucel (hydroxypropylcellulose) (HPC)
[14] = dose: 400.0 mg/kg/injection, schedule: Q04DX003 (ip), vehicle: Klucel (hydroxypropylcellulose) (HPC)
[15] = dose: 400.0 mg/kg/injection, schedule: Q01DX009 (ip), vehicle: saline with Tween-80
[16] = dose: 100.0 mg/kg/injection, schedule: Q04DX002 (ip), vehicle: Klucel (hydroxypropylcellulose) (HPC)
[17] = dose: 200.0 mg/kg/injection, schedule: Q04DX002 (ip), vehicle: Klucel (hydroxypropylcellulose) (HPC)
[18] = dose: 400.0 mg/kg/injection, schedule: Q04DX002 (ip), vehicle: Klucel (hydroxypropylcellulose) (HPC)

Measured: T/C

COc1ccc(COC(=O)N=[N+]=[N-])cc1
inactive: dose: 12.5 mg/kg/injection, schedule: Q04DX003 (ip), vehicle: Klucel (hydroxypropylcellulose) (HPC) 112 % of control | dose: 25.0 mg/kg/injection, schedule: Q01DX009 (ip), vehicle: Klucel (hydroxypropylcellulose) (HPC) 98 % of control | dose: 25.0 mg/kg/injection, schedule: Q04DX003 (ip), vehicle: Klucel (hydroxypropylcellulose) (HPC) 110 % of control | dose: 50.0 mg/kg/injection, schedule: Q01DX009 (ip), vehicle: Klucel (hydroxypropylcellulose) (HPC) 91 % of control | dose: 50.0 mg/kg/injection, schedule: Q04DX003 (ip), vehicle: Klucel (hydroxypropylcellulose) (HPC) 105 % of control | [1] 98 % of control | [2] 105 % of control

CN1CC(CO)C=C2c3cccc4[nH]cc(c34)CC21 (configuration not stated)
inactive: dose: 25.0 mg/kg/injection, schedule: Q01DX009 (ip), vehicle: alcohol 100 % of control | dose: 25.0 mg/kg/injection, schedule: Q04DX003 (ip), vehicle: alcohol 98 % of control | dose: 50.0 mg/kg/injection, schedule: Q01DX009 (ip), vehicle: alcohol 118 % of control | dose: 50.0 mg/kg/injection, schedule: Q04DX003 (ip), vehicle: alcohol 103 % of control | dose: 100.0 mg/kg/injection, schedule: Q01DX009 (ip), vehicle: alcohol 123 % of control | dose: 100.0 mg/kg/injection, schedule: Q04DX003 (ip), vehicle: alcohol 101 % of control | dose: 200.0 mg/kg/injection, schedule: Q01DX009 (ip), vehicle: alcohol 107 % of control | dose: 200.0 mg/kg/injection, schedule: Q04DX003 (ip), vehicle: alcohol 98 % of control | dose: 400.0 mg/kg/injection, schedule: Q04DX003 (ip), vehicle: alcohol 109 % of control

CCOC(=O)N1C=Cn2c(cnc2C)C1OCC (configuration not stated)
inactive: [3] 109 % of control | [4] 100 % of control and 92 % of control | [5] 91 % of control | [6] 110 % of control and 90 % of control | [7] 94 % of control | dose: 400.0 mg/kg/injection, schedule: Q01DX009 (ip), vehicle: saline 92 % of control

Cc1cccc(Cl)c1OCC(O)COc1c(C)cccc1Cl
inactive: [8] 92 % of control | [9] 95 % of control | [10] 95 % of control

CC(=O)OC1CCC2CCCCC2/C1=N\O (configuration not stated)
inactive: dose: 50.0 mg/kg/injection, schedule: Q04DX003 (ip), vehicle: saline 112 % of control | [5] 95 % of control | [7] 97 % of control

COc1ccc(Cl)cc1NC(=O)NC(Cc1ccccc1)c1ccccc1 (configuration not stated)
inactive: [11] 102 % of control | [2] 101 % of control | [12] 100 % of control | [13] 103 % of control | dose: 400.0 mg/kg/injection, schedule: Q01DX009 (ip), vehicle: Klucel (hydroxypropylcellulose) (HPC) 105 % of control | [14] 103 % of control

OC(c1ccccc1)C(c1ccccc1)N1CC1 (configuration not stated)
inactive: dose: 75.0 mg/kg/injection, schedule: Q01DX001 (ip), vehicle: carboxymethylcellulose (CMC) 93 % of control | dose: 150.0 mg/kg/injection, schedule: Q01DX001 (ip), vehicle: carboxymethylcellulose (CMC) 92 % of control | dose: 300.0 mg/kg/injection, schedule: Q01DX001 (ip), vehicle: carboxymethylcellulose (CMC) 92 % of control

COc1cc(/C=C(/C#N)C(=O)N2CCOCC2)cc(OC)c1OC
inactive: dose: 100.0 mg/kg/injection, schedule: Q01DX009 (ip), vehicle: saline with Tween-80 87 % of control | [8] 90 % of control | dose: 200.0 mg/kg/injection, schedule: Q01DX009 (ip), vehicle: saline with Tween-80 93 % of control | [9] 104 % of control | [15] 93 % of control | [10] 101 % of control

CCCNC(Cc1ccccc1)c1ccco1 (configuration not stated)
inactive: [3] 104 % of control | [4] 110 % of control | dose: 100.0 mg/kg/injection, schedule: Q04DX002 (ip), vehicle: saline 97 % of control | dose: 200.0 mg/kg/injection, schedule: Q04DX002 (ip), vehicle: saline 93 % of control

Cc1ccc(N=NC2C(=O)c3ccccc3C2=O)cc1
inactive: dose: 50.0 mg/kg/injection, schedule: Q01DX001 (ip), vehicle: saline 100 % of control | dose: 100.0 mg/kg/injection, schedule: Q01DX001 (ip), vehicle: saline 100 % of control | dose: 200.0 mg/kg/injection, schedule: Q01DX001 (ip), vehicle: saline 97 % of control | dose: 400.0 mg/kg/injection, schedule: Q01DX001 (ip), vehicle: saline 103 % of control

COc1ccc(C)cc1NC(=O)OCCSc1ccc(Cl)cc1
inactive: dose: 50.0 mg/kg/injection, schedule: Q01DX009 (ip), vehicle: gum acacia 97 % of control and 102 % of control | dose: 100.0 mg/kg/injection, schedule: Q01DX001 (ip), vehicle: gum acacia 95 % of control and 97 % of control | dose: 100.0 mg/kg/injection, schedule: Q04DX002 (ip), vehicle: gum acacia 97 % of control and 91 % of control | dose: 100.0 mg/kg/injection, schedule: Q04DX003 (ip), vehicle: gum acacia 96 % of control and 97 % of control | dose: 200.0 mg/kg/injection, schedule: Q01DX001 (ip), vehicle: gum acacia 95 % of control and 100 % of control | dose: 200.0 mg/kg/injection, schedule: Q04DX002 (ip), vehicle: gum acacia 93 % of control | dose: 200.0 mg/kg/injection, schedule: Q04DX003 (ip), vehicle: gum acacia 92 % of control and 96 % of control | dose: 400.0 mg/kg/injection, schedule: Q01DX001 (ip), vehicle: gum acacia 94 % of control and 97 % of control | dose: 400.0 mg/kg/injection, schedule: Q01DX009 (ip), vehicle: gum acacia 88 % of control and 90 % of control | dose: 400.0 mg/kg/injection, schedule: Q04DX002 (ip), vehicle: gum acacia 98 % of control and 90 % of control | dose: 400.0 mg/kg/injection, schedule: Q04DX003 (ip), vehicle: gum acacia 100 % of control and 101 % of control

CC(C)(C)C1CCC(O)C(Cl)C1 (configuration not stated)
inactive: [4] 100 % of control | [6] 98 % of control

O=c1cc(Sc2ccccc2)[nH]c(=O)[nH]1
inactive: [2] 96 % of control | [13] 105 % of control | [14] 102 % of control

CC(C)OCCS(=O)(=O)Oc1ncc(Cl)cc1Cl
inactive: dose: 12.5 mg/kg/injection, schedule: Q01DX009 (ip), vehicle: saline with Tween-80 113 % of control | dose: 25.0 mg/kg/injection, schedule: Q01DX009 (ip), vehicle: saline with Tween-80 94 % of control | dose: 50.0 mg/kg/injection, schedule: Q01DX009 (ip), vehicle: saline with Tween-80 96 % of control | dose: 100.0 mg/kg/injection, schedule: Q04DX003 (ip), vehicle: saline with Tween-80 94 % of control | dose: 200.0 mg/kg/injection, schedule: Q04DX003 (ip), vehicle: saline with Tween-80 96 % of control | [15] 90 % of control | dose: 400.0 mg/kg/injection, schedule: Q04DX003 (ip), vehicle: saline with Tween-80 94 % of control

CC1(C)N=C(N)N=C(N)N1c1cccc(OCCCc2ccccc2)c1
inactive: dose: 25.0 mg/kg/injection, schedule: Q01DX001 (ip), vehicle: Klucel (hydroxypropylcellulose) (HPC) 86 % of control | dose: 50.0 mg/kg/injection, schedule: Q01DX001 (ip), vehicle: Klucel (hydroxypropylcellulose) (HPC) 86 % of control | [1] 91 % of control

COc1ccc(C(=O)CC2(O)C(=O)Nc3ccc(Br)cc32)cc1 (configuration not stated)
inactive: [16] 92 % of control | [17] 89 % of control | [18] 92 % of control

O=[N+]([O-])c1cccc(/C=C/C=C/c2ccc(Cl)c(Cl)c2)c1
inactive: [16] 100 % of control | [17] 93 % of control | [18] 96 % of control

C=CCOC(=O)Oc1ccccc1Cl
inactive: [11] 92 % of control | [2] 95 % of control | [12] 89 % of control | [13] 97 % of control

CC(C)=CC[N+]12CN3CN(CN(C3)C1)C2
inactive: [5] 97 % of control | [7] 103 % of control | dose: 400.0 mg/kg/injection, schedule: Q04DX003 (ip), vehicle: saline 110 % of control

COC1=NS(=O)(=O)C2CCCC/C=C\C2O1 (configuration not stated)
inactive: dose: 150.0 mg/kg/injection, schedule: Q04DX002 (ip), vehicle: Klucel (hydroxypropylcellulose) (HPC) 110 % of control | dose: 300.0 mg/kg/injection, schedule: Q04DX002 (ip), vehicle: Klucel (hydroxypropylcellulose) (HPC) 103 % of control
